According to US12187723B2 (BRISTOL-MYERS SQUIBB COMPANY, priority 2019, dated 2025):

These molecules were tested against T1, human TLR9 (Homo sapiens, UniProt Q9NR96) (assay: TLR9 inhibition reporter assay (HEK-Blue SEAP)). Settings: HEK-Blue cells overexpressing human TLR9, ODN2006 5 nM, 22 hour incubation.
T1 construct: host or cells: HEK-Blue cells
T1 sequence (Q9NR96 26-1032): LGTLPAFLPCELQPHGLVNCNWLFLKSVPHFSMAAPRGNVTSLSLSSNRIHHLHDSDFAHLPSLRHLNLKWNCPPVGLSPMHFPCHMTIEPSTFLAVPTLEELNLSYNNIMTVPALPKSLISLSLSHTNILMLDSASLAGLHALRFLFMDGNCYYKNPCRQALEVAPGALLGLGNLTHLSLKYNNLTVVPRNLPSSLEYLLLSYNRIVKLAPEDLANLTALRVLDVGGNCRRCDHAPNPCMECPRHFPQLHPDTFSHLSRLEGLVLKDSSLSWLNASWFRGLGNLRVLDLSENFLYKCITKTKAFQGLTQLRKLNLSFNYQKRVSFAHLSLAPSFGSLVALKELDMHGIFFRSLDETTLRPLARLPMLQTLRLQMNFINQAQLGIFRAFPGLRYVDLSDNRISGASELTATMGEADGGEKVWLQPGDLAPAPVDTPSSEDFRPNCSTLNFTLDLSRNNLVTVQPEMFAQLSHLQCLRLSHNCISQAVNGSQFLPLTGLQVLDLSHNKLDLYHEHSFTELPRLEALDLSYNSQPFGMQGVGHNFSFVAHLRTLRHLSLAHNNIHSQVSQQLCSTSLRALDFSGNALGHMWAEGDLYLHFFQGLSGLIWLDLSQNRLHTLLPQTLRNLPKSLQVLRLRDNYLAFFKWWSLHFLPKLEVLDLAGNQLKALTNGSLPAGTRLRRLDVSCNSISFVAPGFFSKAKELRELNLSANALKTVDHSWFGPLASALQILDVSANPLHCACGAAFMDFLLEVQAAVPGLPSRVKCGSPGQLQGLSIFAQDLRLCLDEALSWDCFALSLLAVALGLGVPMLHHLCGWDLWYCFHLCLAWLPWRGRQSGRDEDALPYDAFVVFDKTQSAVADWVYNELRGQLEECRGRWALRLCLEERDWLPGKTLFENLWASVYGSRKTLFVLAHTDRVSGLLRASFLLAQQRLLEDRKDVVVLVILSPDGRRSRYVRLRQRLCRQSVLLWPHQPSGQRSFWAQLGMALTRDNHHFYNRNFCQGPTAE
Assay type: cell-based
Method in brief: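 Human TLR7/8/9 HEK-Blue reporter lines; dose range 0.05 nM–50 μM; 30 min RT preincubation; stimulus gardiquimod 7.5 μM / R848 15.9 μM / ODN2006 5 nM respectively; 22 h, 37 °C; SEAP detected colorimetrically.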
For CCc1cc2c(cc1-c1cc(OC)c3ncnn3c1)[nH]c(=O)n2[C@@H]1CCCN(C2COC2)C1 [Example 173, (R)-6-ethyl-5-(8-methoxy-[1,2,4]triazolo[1,5-a]pyridin-6-yl)-1-(1-(oxetan-3-yl)piperidin-3-yl)-1,3-dihydro-2H-benzo[d]imidazol-2-one], the IC50 was over 50 µM. With CCc1cc2c(cc1-c1cc(OC)c3ncnn3c1)[nH]c(=O)n2[C@@H]1CCCN(CC2CCC2)C1 [Example 181, (R)-1-(1-(cyclobutylmethyl)piperidin-3-yl)-6-ethyl-5-(8-methoxy-[1,2,4]triazolo[1,5-a]pyridin-6-yl)-1,3-dihydro-2H-benzo[d]imidazol-2-one] the IC50 was 6.77 µM. COc1cc(-c2cc3[nH]c(=O)n([C@H]4CC[C@@H](NC(C)C)CC4)c3cc2C(C)C)cn2ncnc12 [Example 192, 6-isopropyl-1-((1s,4s)-4-(isopropylamino)cyclohexyl)-5-(8-methoxy-[1,2,4]triazolo[1,5-a]pyridin-6-yl)-1,3-dihydro-2H-benzo[d]imidazol-2-one] showed an IC50 of 16.6 µM. Molecule CCc1cc2c(cc1-c1cc(OC)c3ncnn3c1)[nH]c(=O)n2[C@@H]1CCCN(C2CCOCC2)C1 [Example 184, (R)-6-ethyl-5-(8-methoxy-[1,2,4]triazolo[1,5-a]pyridin-6-yl)-1-(1-(tetrahydro-2H-pyran-4-yl)piperidin-3-yl)-1,3-dihydro-2H-benzo[d]imidazol-2-one] has an IC50 of 26.6 µM. Molecule CCc1cc2c(cc1-c1cc(OC)c3ncnn3c1)[nH]c(=O)n2[C@@H]1CCCN(CC(C)(C)C)C1 [Example 180, (R)-6-ethyl-5-(8-methoxy-[1,2,4]triazolo[1,5-a]pyridin-6-yl)-1-(1-neopentylpiperidin-3-yl)-1,3-dihydro-2H-benzo[d]imidazol-2-one] has an IC50 of 10.3 µM. With COc1cc(-c2cc3[nH]c(=O)n(C4CCC(N5CC(OC)C5)CC4)c3cc2C(C)C)cn2ncnc12 (centres unmarked) [Example 237, 6-isopropyl-5-(8-methoxy-[1,2,4]triazolo[1,5-a]pyridin-6-yl)-1-(4-(3-methoxyazetidin-1-yl)cyclohexyl)-1,3-dihydro-2H-benzo[d]imidazol-2-one] the IC50 was 11.3 µM. Molecule COCCN1CCC(n2c(=O)[nH]c3cc(-c4cc(OC)c5ncnn5c4)c(C(C)C)cc32)CC1 [Example 223, 6-isopropyl-5-(8-methoxy-[1,2,4]triazolo[1,5-a]pyridin-6-yl)-1-(1-(2-methoxyethyl)piperidin-4-yl)-1,3-dihydro-2H-benzo[d]imidazol-2-one] has an IC50 of 13.2 µM. In the case of Cc1cc2c(cc1-c1cc(C)c3ncnn3c1)[nH]c(=O)n2[C@H]1CCCN(C(C)C)C1 [Example 13, (S)-1-(1-isopropylpiperidin-3-yl)-6-methyl-5-(8-methyl-[1,2,4]triazolo[1,5-a]pyridin-6-yl)-1,3-dihydro-2H-benzo[d]imidazol-2-one], the IC50 is reported as 4.42 µM. CCc1cc2c(cc1-c1cc(OC)c3ncnn3c1)[nH]c(=O)n2[C@H]1CC[C@@H](NC2COC2)CC1 [Example 170, 6-ethyl-5-(8-methoxy-[1,2,4]triazolo[1,5-a]pyridin-6-yl)-1-((1s,4s)-4-(oxetan-3-ylamino)cyclohexyl)-1,3-dihydro-2H-benzo[d]imidazol-2-one] showed an IC50 of 20 µM. For COc1cc(-c2cc3[nH]c(=O)n([C@H]4CC[C@@H](NCC(C)(C)C)CC4)c3cc2C(C)C)cn2ncnc12 [Example 197, 6-isopropyl-5-(8-methoxy-[1,2,4]triazolo[1,5-a]pyridin-6-yl)-1-((1s,4s)-4-(neopentylamino)cyclohexyl)-1,3-dihydro-2H-benzo[d]imidazol-2-one], the IC50 was 6.26 µM. CCc1cc2c(cc1-c1cc(OC)c3ncnn3c1)[nH]c(=O)n2[C@@H]1CCCN(CC2CCOCC2)C1 [Example 175, (R)-6-ethyl-5-(8-methoxy-[1,2,4]triazolo[1,5-a]pyridin-6-yl)-1-(1-((tetrahydro-2H-pyran-4-yl)methyl)piperidin-3-yl)-1,3-dihydro-2H-benzo[d]imidazol-2-one] was tested, and the IC50 was 7.39 µM. In the case of COc1cc(-c2cc3[nH]c(=O)n(C4CCC(N5CCCC5)CC4)c3cc2C(C)C)cn2ncnc12 (centres unmarked) [Example 232, 6-isopropyl-5-(8-methoxy-[1,2,4]triazolo[1,5-a]pyridin-6-yl)-1-(4-(pyrrolidin-1-yl)cyclohexyl)-1,3-dihydro-2H-benzo[d]imidazol-2-one], the IC50 is reported as 7.78 µM. CCc1cc2c(cc1-c1cc(OC)c3ncnn3c1)[nH]c(=O)n2[C@@H]1CCCN(CCOC)C1 [Example 227, (R)-6-ethyl-5-(8-methoxy-[1,2,4]triazolo[1,5-a]pyridin-6-yl)-1-(1-(2-methoxyethyl)piperidin-3-yl)-1,3-dihydro-2H-benzo[d]imidazol-2-one] gave an IC50 of 15.2 µM. Cc1c(-c2cc3[nH]c(=O)n([C@H]4CC[C@@H](NC(C)C)CC4)c3cc2C(C)C)cn2ncnc2c1C [Example 186, 5-(7,8-dimethyl-[1,2,4]triazolo[1,5-a]pyridin-6-yl)-6-isopropyl-1-((1s,4s)-4-(isopropylamino)cyclohexyl)-1,3-dihydro-2H-benzo[d]imidazol-2-one] showed an IC50 of 5.99 µM. COc1cc(-c2cc3[nH]c(=O)n([C@H]4CC[C@H](NCC(C)C)CC4)c3cc2C(C)C)cn2ncnc12 [Example 204, 1-((1r,4s)-4-(isobutylamino)cyclohexyl)-6-isopropyl-5-(8-methoxy-[1,2,4]triazolo[1,5-a]pyridin-6-yl)-1,3-dihydro-2H-benzo[d]imidazol-2-one] showed an IC50 of 11.7 µM. With COCCN1CCC[C@@H](n2c(=O)[nH]c3cc(-c4cc(OC)c5ncnn5c4)c(C(C)C)cc32)C1 [Example 226, (R)-6-isopropyl-5-(8-methoxy-[1,2,4]triazolo[1,5-a]pyridin-6-yl)-1-(1-(2-methoxyethyl)piperidin-3-yl)-1,3-dihydro-2H-benzo[d]imidazol-2-one] the IC50 was 14.2 µM. Molecule Cc1c(-c2cc3[nH]c(=O)n([C@H]4CC[C@@H](NC5CCOCC5)CC4)c3cc2C(C)C)cn2ncnc2c1C [Example 187, 5-(7,8-dimethyl-[1,2,4]triazolo[1,5-a]pyridin-6-yl)-6-isopropyl-1-((1s,4s)-4-((tetrahydro-2H-pyran-4-yl)amino)cyclohexyl)-1,3-dihydro-2H-benzo[d]imidazol-2-one] has an IC50 of 12.8 µM. COc1cc(-c2cc3[nH]c(=O)n(C4CCC(N5CCC6(CC5)COC6)CC4)c3cc2C(C)C)cn2ncnc12 (centres unmarked) [Example 240, 1-(4-(2-oxa-7-azaspiro[3.5]nonan-7-yl)cyclohexyl)-6-isopropyl-5-(8-methoxy-[1,2,4]triazolo[1,5-a]pyridin-6-yl)-1,3-dihydro-2H-benzo[d]imidazol-2-one] was tested, and the IC50 was 4.43 µM. Work on CCc1cc2c(cc1-c1cc(OC)c3ncnn3c1)[nH]c(=O)n2[C@@H]1CCCN(C(=O)CN(C)C)C1 [Example 228, (R)-1-(1-(dimethylglycyl)piperidin-3-yl)-6-ethyl-5-(8-methoxy-[1,2,4]triazolo[1,5-a]pyridin-6-yl)-1,3-dihydro-2H-benzo[d]imidazol-2-one] yielded an IC50 of 14.1 µM. COc1cc(-c2cc3[nH]c(=O)n(C4CCC(N5CC6(CCOCC6)C5)CC4)c3cc2C(C)C)cn2ncnc12 (single isomer, unassigned) [Example 236, 1-(4-(7-oxa-2-azaspiro[3.5]nonan-2-yl)cyclohexyl)-6-isopropyl-5-(8-methoxy-[1,2,4]triazolo[1,5-a]pyridin-6-yl)-1,3-dihydro-2H-benzo[d]imidazol-2-one] gave an IC50 of 2.59 µM. In the case of CCc1cc2c(cc1-c1cc(OC)c3ncnn3c1)[nH]c(=O)n2[C@@H]1CCCN(CCC(C)(C)C)C1 [Example 208, (R)-1-(1-(3,3-dimethylbutyl)piperidin-3-yl)-6-ethyl-5-(8-methoxy-[1,2,4]triazolo[1,5-a]pyridin-6-yl)-1,3-dihydro-2H-benzo[d]imidazol-2-one], the IC50 is reported as 3.32 µM. With COc1cc(-c2cc3[nH]c(=O)n([C@H]4CC[C@H](N(CC(C)C)CC(C)C)CC4)c3cc2C(C)C)cn2ncnc12 [Example 205, 1-((1r,4r)-4-(diisobutylamino)cyclohexyl)-6-isopropyl-5-(8-methoxy-[1,2,4]triazolo[1,5-a]pyridin-6-yl)-1,3-dihydro-2H-benzo[d]imidazol-2-one] the IC50 was 11.6 µM. CCc1cc2c(cc1-c1cc(OC)c3ncnn3c1)[nH]c(=O)n2[C@@H]1CCCN(CC2CC2)C1 [Example 182, (R)-1-(1-(cyclopropylmethyl)piperidin-3-yl)-6-ethyl-5-(8-methoxy-[1,2,4]triazolo[1,5-a]pyridin-6-yl)-1,3-dihydro-2H-benzo[d]imidazol-2-one] gave an IC50 of 7.94 µM.
